In patent US20230235378A1, “LZHEIMER'S DISEASE-SPECIFIC ALTERATIONS OF PROTEIN KINASE C EPSILON (PKC-EPSILON PROTEIN LEVELS” (WEST VIRGINIA UNIVERSITY BOARD OF GOVERNORS ON BEHALF OF …, priority 2010, published 2023):
Where two headings read alike, the source gives them in different places.

What was measured:
rats = conditions: cited from earlier work
α-secretase = conditions: human fibroblasts, cited from earlier work
PKC [1] = assay: PKC in perforated fibers of AD transgenic mice (FIG. 8); assay type: in vivo
PKC [2] = assay: PKC activity in cultured rat hippocampal H19-7/IGF-IR cells; assay type: cell-based
Method: Cell Culture. Rat hippocampal H19-7/IGF-IR cells (ATCC, Manassas, Va.) were plated onto poly-L-lysine coated plates and grown at 35° C. in DMEM/10% FCS for several days until about 50% coverage was obtained. The cells were then induced to differentiate into a neuronal phenotype by replacing the medium with 5 ml N2 medium containing 10 ng/ml basic fibroblast growth factor at 39° C. and grown in T-75 flasks at 37° C. Human SH-SY5Y neuroblastoma cells (ATCC) were cultured in 45% F 12K/45% MEM/10% FCS. Mouse N2A neuroblastoma cells were cultured in DMEM/10% FCS without glutamine. Rat hippocampal neurons from 18-day-old embryonic
(§1) Protein Kinase C Assay. Rat hippocampal cells were cultured and scraped in 0.2 ml homogenization buffer (20 mM Tris-HCl, pH 7.4, 50 mM NaF, 1 μg/ml leupeptin, and 0.1 mM PMSF) and homogenized by sonication in a Marsonix micro-probe sonicator (5 sec, 10 W). To measure PKC, 10 μl of cell homogenate or purified PKC isozyme (purchased from Calbiochem) was incubated for 15 min at 37° C. in the presence of 10 μM histones, 4.89 mM CaCl2, 1.2 μg/μl phosphatidyl-L-serine, 0.18 μg/μl 1,2-dioctanoyl-sn-glycerol, 10 mM MgCl2, 20 mM HEPES (pH 7.4), 0.8 mM EDTA, 4 mM EGTA, 4% glycerol, 8 μg/ml aprotinin, 8 μg/ml leupeptin, and 2 mM benzamidine. 0.5 μCi [γ-32P]ATP was added and 32P-phosphoprotein formation was measured by adsorption onto phosphocellulose as described previously. Nelson and Alkon, J. Neurochemistry. 1995; 65: 2350-57. For measurements of activation by BR-101 (DCP-LA) and similar compounds, PKC activity was measured in the absence of diacylglycerol and phosphatidylserine, as described by Kanno et al., and PKC δ, ε, η, and were measured in the absence of added EGTA and CaCl2, as described by Kanno et al., J. Lipid Res. 2006; 47: 1146-50. Low concentrations of Ca2+ are used because high Ca2+ interacts with the PKC phosphatidylserine binding site and prevents activation. For measurements of bryostatin activation, 1,2-diacylglycerol was omitted unless otherwise stated.
PKC activators that bind to the diacylglycerol binding site, including bryostatin, gnidimacrin, and phorbol esters, produce a transient activation of PKC activity, followed by a prolonged downregulation. Nelson et al., Trends in Biochem. Sci. 2009; 34: 136-45. This was confirmed in cultured rat hippocampal cells. Incubation of rat 1119-7/IGF-IR cells with (0.04 nM and 0.2 nM) bryostatin produced a 2-fold activation that lasted 30 min, followed by a 20% downregulation that returned to baseline by 24 h (data not shown). […] This sustained activation was only observed in primary neurons.

[3] = test system: Endothelin-converting enzyme (ECE); assay: ECE assay in neuroblastoma cells (fluorimetric, McaBK2); assay type: cell-based, human; conditions: bryostatin 0.27 nM, BR-101 1 μM, BR-111 1
Method: ECE Assay. SH-5757 neuroblastoma cells were incubated with bryostatin (0.27 nM), BR-101 (DCP-LA) (1 μM), and BR-111 (DHA-CP6) (1 Endothelin-converting enzyme (ECE) was measured fluorimetrically using the method of Johnson and Ahn, Anal. Biochem. 2000; 286: 112-118. A sample of cell homogenate (20 μl) was incubated in 50 mM MES-KOH, pH 6.0, 0.01% C 12E10 (polyoxyethylene-10-lauryl ether), and 15 μM McaBK2 (7-Methoxycoumarin-4-acetyl [Ala7-(2,4-Dinitrophenyl)Lys9]-bradykinin trifluoroacetate salt) (Sigma-Aldrich). After 60 min at 37° C., the reaction was quenched by adding trifluoroacetic acid to 0.5%. The sample was diluted to 1.4 ml with water and the fluorescence was measured at ex=334 nm, em=398 nm.

Aß [4] = assay: Aß production in N2a neuroblastoma cells transfected with human APPSwe/PS1D (Aß 1-42 ELISA); assay type: cell-based, mouse; conditions: for levels of both intracellular and secreted Aß: 24 h incubation, various concentrations
Method: (§2) Aß Measurement and Cell Viability Assay. Aß was measured using an Aß 1-42 human fluorimetric ELISA kit (Invitrogen) according to the manufacturer's instructions. Results were measured in a Biotek Synergy HT microplate reader. AlamarBlue and CyQuant NF (Invitrogen) according to the manufacturer's instructions.
To measure the effects of PKC activation on Aß production, we used mouse neuro2a (N2a) neuroblastoma cells transfected with human APPSwe/PS1D, which produce large quantities of Aβ. Petanceska et al., J. Neurochem. 1996; 74: 1878-84. […] With bryostatin, which activates PKC by binding to the diacylglycerol-binding site, the inhibition was biphasic, with concentrations of 20 nM or higher producing no net effect. This may be explained by the ability of this class of PKC activators to downregulate PKC when used at high concentrations.

TACE = TACE assay in cell homogenates of neuronal cells; assay type: cell-based; conditions: human SH-SY5Y, N2a mouse neuroblastoma cells, primary neurons from rat hippocampus
Method: TACE Assay. TACE was measured by incubating 5 μl cell homogenate, 3 μl buffer (50 mM Tris-HCl 7.4 plus 25 mM NaCl plus 4% glycerol), and 1 μl of 100 μM TACE substrate IV (Aβz-LAQAVRSSSR-DPa) (Calbiochem) for 20 min at 37° in 1.5-ml polypropylene centrifuge tubes (Jin et al., Anal. Biochem. 2002; 302: 269-75). The reaction was stopped by cooling to 4° C. The samples were diluted to 1 ml and the fluorescence was rapidly measured (ex=320 nm, em=420 nm) in a Spex Fluorolog 2 spectrofluorometer.
Buxbaum et al., J. Biol. Chem. 1998; 273: 27765-67; Etcheberrigaray et al., Proc. Natl. Acad. Sci. USA. 2006: 103:8215-20. However, many of these earlier studies were carried out in fibroblasts and other non-neuronal cell types, which appear to respond differently to PKC activators than neurons.

Aß [5] = assay: Degradation of exogenous monomeric Aβ-42 in SH-SY5Y cells; assay type: cell-based, human; conditions: 0.01 to 10 μM; 100 nM exogenous monomeric Aβ-42; 24 h
Method: as §2
To determine whether the reduced levels of Aß caused by PKC activators were due to inhibition of Aß synthesis or activation of Aß degradation, we applied BR-111 (DHA-CP6) (0.01 to 10 μM) and low concentrations (100 nM) of exogenous monomeric Aβ-42 to cultured SH-SY5Y cells. This concentration of Aß is too low to produce measurable toxicity or cell death. Since SH-SY5Y cells produce only trace amounts of Aβ, this experiment was an effective test of the ability of PKC activators to enhance Aß degradation. By 24 h, most of the Aß had been taken up by the cells and the concentration of Aß in the culture medium was undetectable.

[6] = Cell viability assay (alamar Blue and CyQuant staining); assay type: cell-based
Method: as §2

purified PKC = target: T1, purified PKC (Homo sapiens, UniProt Q02156); assay: PKC isozyme specificity: purified PKC preincubated with compound, activity measured radiometrically; assay type: biochemical
T1 construct: purchased Calbiochem
T1 sequence (Q02156 1-737): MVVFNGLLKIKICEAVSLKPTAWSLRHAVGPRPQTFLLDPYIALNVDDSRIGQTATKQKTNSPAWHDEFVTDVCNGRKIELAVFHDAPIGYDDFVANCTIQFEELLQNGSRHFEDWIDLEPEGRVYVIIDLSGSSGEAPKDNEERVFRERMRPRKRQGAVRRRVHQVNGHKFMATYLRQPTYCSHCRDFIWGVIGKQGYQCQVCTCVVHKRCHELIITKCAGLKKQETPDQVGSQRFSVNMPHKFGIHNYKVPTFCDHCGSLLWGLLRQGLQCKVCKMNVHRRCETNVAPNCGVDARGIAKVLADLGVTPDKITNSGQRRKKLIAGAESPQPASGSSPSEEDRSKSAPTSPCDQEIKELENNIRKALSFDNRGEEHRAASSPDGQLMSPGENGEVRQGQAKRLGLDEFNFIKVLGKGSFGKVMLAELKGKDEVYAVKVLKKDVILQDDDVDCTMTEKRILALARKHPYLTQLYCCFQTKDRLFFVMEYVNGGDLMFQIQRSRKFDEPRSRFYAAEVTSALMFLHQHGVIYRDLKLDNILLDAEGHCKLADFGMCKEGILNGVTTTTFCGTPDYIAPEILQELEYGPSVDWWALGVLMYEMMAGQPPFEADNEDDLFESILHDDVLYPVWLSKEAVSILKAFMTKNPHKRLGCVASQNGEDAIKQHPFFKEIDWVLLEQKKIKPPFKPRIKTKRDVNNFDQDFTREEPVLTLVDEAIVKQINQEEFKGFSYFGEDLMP
Method: as §1
To determine their PKC isozyme specificity, the new compounds were preincubated with purified PKC for five minutes and the PKC activity was measured radiometrically.

| SMILES | rate of learning (rats) | increase of initial rate of α-secretase activity (α-secretase; 10 μM) | increase of initial rate of α-secretase activity (α-secretase; 100 μM) | loss of PKC in perforated fibers (PKC [1]) | downregulation of PKC following activation (PKC [2]; 0.04 nM and 0.2 nM) | time of return of PKC to baseline (PKC [2]; 0.04 nM and 0.2 nM) | activation of PKC activity (PKC [2]; 0.04 nM and 0.2 nM, data not shown) | downregulation of PKC activity (PKC [2]; 8 h, data not shown) | change in ECE activity [3] | levels of both intracellular and secreted Aß (Aß [4]) | change in TACE activity (TACE) | reduction of cellular levels of Aß (Aß [5]) | concentration dependence of Aß inhibition (Aß [4]; concentrations up to 10 to 100 μM, no evidence of downregulation at higher concentrations) | effect on cell survival or proliferation [6] | concentration needed to activate PKC, relative to BR-101 (DCP-LA) (purified PKC; compared with BR-101 (DCP-LA)) | activation of purified PKC (purified PKC; used as methyl esters) |
| --- | --- | --- | --- | --- | --- | --- | --- | --- | --- | --- | --- | --- | --- | --- | --- | --- |
| CCC/C=C/C=C/C(=O)O[C@H]1/C(=C/C(=O)OC)C[C@H]2C[C@H]([C@@H](C)O)OC(=O)C[C@H](O)C[C@@H]3C[C@H](OC(C)=O)C(C)(C)[C@](O)(C[C@@H]4C/C(=C/C(=O)OC)C[C@H](/C=C/C(C)(C)[C@]1(O)O2)O4)O3 [bryostatin] | dramatically increase | 16 fold | 132 fold | prevents the loss of PKC in perforated fibers | 20% | ≤ 24 h | 2 fold | at or near the baseline | sustained increase | markedly reduced | only produced small increases |  |  |  |  |  |
| CCC1CC1CC1CC1CC1CC1CC1CC1CC1CC1CC1CC1CCC(=O)OC (stereo not shown) [BR-111, methyl-3-(2-((2-((2-((2-((2-((2-ethylcyclopropyl)methyl)cyclopropyl)methyl)cyclopropyl)methyl)-cyclopropyl)methyl)cyclopropyl)methyl)cyclopropyl)propanoate] |  |  |  |  |  |  |  |  | sustained increase | markedly reduced | only produced small increases | 45-63% | monotonically increasing inhibition | no effect | approx. 100 times lower | activated purified PKC to a similar extent |
